Experimental data reported in patent US20260217691A1, “FOXM1 INHIBITORS AND THEIR USE IN TREATING CANCERS” (THE BOARD OF TRUSTEES OF THE UNIVERSITY OF ILLINOIS, priority 2022, published 2026).
Entries after “also recorded” stand apart in the source; their conditions may differ.

What was measured:
[1] = system: KG-1, HL-60, K562, THP-1 cells; assay type: cell-based
FOXM1 [2] = molecular target: T1, FOXM1 (Homo sapiens, UniProt Q08050); experiment: FOXM1 protein levels by immunoblotting in leukemia/AML cell lines; assay type: cell-based; parameters: Total protein samples obtain from treated cells were analyzed for FOXM1 protein levels via immunoblotting; endogenous in cells; host or cells: KG-1, HL-60, K562, THP-1 leukemia cell lines; conditions: for FOXM1 level / effect on FOXM1 protein levels suppressed by STL001: KG-1 cells; for effect on FOXM1 protein levels suppressed by STL001: co-treatment with STL001, 24 h
T1 sequence (Q08050 1-763): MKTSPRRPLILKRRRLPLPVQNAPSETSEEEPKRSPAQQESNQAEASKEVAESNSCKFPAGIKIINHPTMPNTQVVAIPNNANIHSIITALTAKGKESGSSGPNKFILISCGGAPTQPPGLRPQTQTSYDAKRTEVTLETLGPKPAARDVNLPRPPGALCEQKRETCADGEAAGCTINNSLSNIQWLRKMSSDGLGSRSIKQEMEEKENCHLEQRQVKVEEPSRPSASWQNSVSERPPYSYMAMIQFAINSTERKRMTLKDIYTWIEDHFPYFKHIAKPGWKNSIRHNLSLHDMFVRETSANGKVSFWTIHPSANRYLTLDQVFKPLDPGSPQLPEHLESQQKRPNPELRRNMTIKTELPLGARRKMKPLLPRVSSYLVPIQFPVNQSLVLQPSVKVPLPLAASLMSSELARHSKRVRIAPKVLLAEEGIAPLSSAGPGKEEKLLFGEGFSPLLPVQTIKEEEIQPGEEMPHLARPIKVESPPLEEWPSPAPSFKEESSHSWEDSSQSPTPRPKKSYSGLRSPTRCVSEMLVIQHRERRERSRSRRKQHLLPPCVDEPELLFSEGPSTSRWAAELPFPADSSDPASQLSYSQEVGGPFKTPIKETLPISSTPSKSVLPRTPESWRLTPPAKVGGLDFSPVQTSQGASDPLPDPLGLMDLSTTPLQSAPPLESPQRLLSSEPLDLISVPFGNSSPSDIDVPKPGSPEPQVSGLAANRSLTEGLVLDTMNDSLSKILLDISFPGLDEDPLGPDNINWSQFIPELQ
Method: [a] Leukemia cells, KG-1, HL-60 and K562 were treated with increasing concentrations of STL427944 for 24 hrs. […] [b] THP1 and KG-1 cells were treated with indicated concentrations of venetoclax and STL427944 alone or in combination for 24 hrs. [c] KG-1 and K562 cells were treated with indicated concentrations of cytarabine and STL427944 alone or in combination for 24 hrs.
FIG. 8. STL427944 treatment of human leukemia cell lines suppress FOXM1 protein expression. (a) STL427944 treatment of human leukemia cell lines inhibit FOXM1 protein expression and sensitize cells to venetoclax treatment. […] (b) Stable shRNA-mediated FOXM1 knockdown prominently sensitizes KG-1 cells to cytotoxic effect of venetoclax. (c, d) combined treatment with STL427944 and venetoclax suppresses FOXM1 in KG-1 and THP-1 cells and synergistically promotes cytotoxic effects similarly to FOXM1 knockdown. Total protein was isolated from cells immediately after the treatment and analyzed via immunoblotting with FOXM1 antibodies). Apoptosis induction was estimated based on caspase-3 cleavage.
FIGS. 9A and 9B: Novel FOXM1 inhibitor STL001 sensitizes Leukemia cells to chemotherapy agents. [a] Structural formula of novel FOXM1 inhibitor STL001. [b] Leukemia cells, KG-1, HL-60, and K562 were treated with increasing concentrations of STL001 for 24 hrs. […] [c] KG-1 cells were treated with indicated concentrations of Laptomycin B, Chloroquine, and STL001 for 24 hrs. […] [d] KG-1, HL-60, and K562 cells were treated with indicated concentrations of venetoclax and STL001 alone or in combination for 24 hrs. [e] KG-1, HL-60, and K562 cells were treated with indicated concentrations of cytarabine and STL alone or in combination for 24 hrs.
FIGS. 13A-13H STL001 is a novel FOXM1 inhibitor that sensitizes leukemia cells to standard cytotoxic and bcl2 inhibitor therapies. FIG. 13A AML cell line KG-1 treated with precursor compound STL427944. FIG. 3B AML cell lines KG-1, HL-60, and K562 were treated with increasing concentrations of STL001 for 24 h. Total protein samples obtained from treated cells were analyzed for FOXM1 protein levels using immunoblotting; β-actin was used as the internal loading control. FIG. 13C KG-1, HL-60, and K562 cells were treated with indicated concentrations of venetoclax and STL001 alone or in combination for 24 h. FIG. 13D KG-1, HL-60, and K562 cells were treated with indicated concentrations of cytarabine and STL001 alone or in combination for 24 h. […] FIG. 13E KG-1 cells were treated with indicated concentrations of Leptomycin B, Chloroquine, and STL001 for 24 h. Total protein samples obtained from treated cells were analyzed for FOXM1 protein levels via immunoblotting; β-actin was used as an internal loading control. FIG. 13F KG-1 cell lines with shRNA knockdown of FOXM1 were treated with venetoclax and STL001 and compared to parental cells. FIG. 13G Real-time PCR-based expression profiling for canonical FOXM1 target genes was performed on primary AML mononuclear cells (n=5) treated ex vivo with STL001 5 μM for 24 h. Mean and standard error of the delta Ct for DMSO or treatment group are plotted for each gene. P-value is estimated by two-tailed paired t-test. Asterisks denote P<0.05. FIG. 13H Treatment of peripheral blood mononuclear cells with STL001 for 24 h followed by immunohistochemistry for FOXM1. Slides were scanned on an Aperio AT2 brightfield scanner and images were analyzed using HALO 2.0 software. Hematoxylin counterstain was used to segment nuclei within the ROIs and to establish an accurate cell count. Percent cells with nuclear FOXM1 expression compared between DMSO and STL001 treated cells. P-value is based on one-tailed paired t-test.

NPM1c mutant AML cells = conditions: cited from earlier work
22RV1, LNCaP cells = system: 22RV1, LNCaP cells
Method: (§1) FIG. 17. […] (A) Prostate cancer (22RV1 and LNCaP) cells were treated with indicated concentrations of paclitaxel alone or in combination with STL001 for 24 hrs. (B) Tamoxifen resistance MCF-7 breast cancer cells (TAM-R) were treated with indicated concentrations of Tamoxifen alone or in combination with STL001 for 24 hrs. In all cases, total protein samples were obtained from cells immediately after treatment and analyzed for FOXM1, cleaved caspase-3 levels via immunoblotting, β-actin was used as internal loading control (n=3). (C) Percent (%) dead cells in TAM-R cells treated with indicated concentrations of Tamoxifen alone or in combination with STL001 for 24 hrs. […] (F) HCC 143 cells with stable shRNA-mediated FOXM1 knockdown (KD) were treated with doxorubicin alone or in combination with STL001 for 24 hrs and compared to parental cells under the same treatment conditions. In all cases, total protein samples were obtained from cells immediately after treatment and analyzed for FOXM1, cleaved caspase-3 levels via immunoblotting, β-actin was used as internal loading control (n=3).

FOXM1 [3] = molecular target: T1, FOXM1; experiment: FOXM1 protein levels by immunoblotting in solid cancer cell lines
Method: Cell culture: Human cell lines LNCaP and 22Rv1 (human prostate carcinoma), OVCAR8 and ES-2 (High-grade serous ovarian cancer, HGSOC), HCT-116 and HCT-FET (human colorectal carcinoma), HCC-1143 (triple negative breast cancer (TNBC), TAMR (Tamoxifen resistant MCF7) human breast cancer, were provided from various investigators. LNCaP and 22Rv1 cell lines were cultured in RPMI-1640 with 2 mM L-Glutamine (Gibco; Thermo Fisher Scientific, Waltham, MA, USA). HCC-1143 cell lines were cultured in Iscove's Modified Dulbecco Medium (IMDM) with 2 mM L-Glutamine (Gibco; Thermo Fisher Scientific). OVCAR-8, ES-2, HCT-116, and HCT-FET cell lines were cultured in Dulbecco's Modified Eagle Medium (DMEM) with 4.5 g/L glucose and 4 mM L-Glutamine (Gibco; Thermo Fisher Scientific). For all cell lines, the growth media was supplemented with 10% Foetal Bovine Serum (FBS), penicillin (100 U/mL), and 100 μg/mL streptomycin (Gibco; Thermo Fisher Scientific). TAMR cells were routinely cultured in DMEM/F12 medium without phenol red (Gibco; Thermo Fisher Scientific), containing 1% charcoal-striped FBS, 2.5 mM L-Glutamine (Thermo Fisher Scientific), 6 ng/mL insulin (Millipore Sigma) and 50 nM 4-hydroxytamoxifen (4-OHT; Millipore Sigma). All cell lines were grown and maintained at 37° C. in a humidified incubator with 5% CO2. Sub-confluent cultures (70-80%) were split 1:5 using 0.25% Trypsin/EDTA (Millipore Sigma).
Drug treatment of cultured cells: After harvesting, cells were counted in presence of Trypan Blue (Thermo Fisher Scientific) and seeded onto tissue culture plates to achieve ~50% confluency. The next day, treatment of cells was performed by aspirating the nonadherent cells and growth medium and replacing it with the fresh one containing selected concentrations of drugs. For Tamoxifen based studies, the nonadherent cells and growth media was aspirated and replaced with the DMEM supplemented with 4.5 g/L glucose and 4 mM L-Glutamine, 10% FBS, penicillin (100 U/mL), 100 μg/mL streptomycin, 10 nM estrogen, and selected concentrations of drugs. […] Post-treatment at selected times, the cells were harvested, washed with ice-cold PBS and used for protein or RNA purification as described below.
Protein immunoblotting: Total protein was extracted using ice-cold radio-immunoprecipitation assay (RIPA) buffer (Millipore Sigma) supplemented with Halt protease- and phosphatise-inhibitor cocktails (Fisher Scientific), 2 mM sodium orthovanadate (New England Biolabs, Inc., USA), and 5 mM sodium fluoride (Millipore Sigma) according to the manufacturer's protocol. Protein content in each sample was estimated using Bio-Rad Protein Assay (Bio-Rad, USA). Equal amounts of protein (20-30 μg) were separated on hand-cast SDS/PAGE (6-12%) mini-protein gels and transferred to 0.2 μm Immobilon-Psq polyvinylidene difluoride (PVDF) transfer membrane (Millipore Sigma). Membranes were blocked with 4% bovine serum albumin (BSA; Millipore Sigma) in TRIS-buffered saline (TBS) with 0.1% Tween-20 (TBS-T, Thermo Fisher Scientific) and probed overnight at 4° C. with the primary antibodies (FOXM1, Cell Signaling Technology (CST), Inc., USA; Cleaved Caspase-3, CST; β-actin, Thermo Fisher Scientific) diluted according to the manufacturer's protocol. […] After incubating membranes with the secondary antibodies, the membranes were then washed three times for 10 min each with TBST. Protein bands were developed using SuperSignal™ West Pico PLUS Chemiluminescent Substrate (Thermo Fisher Scientific) and detected using ChemiDoc Imaging System (Bio-Rad).

[4] = system: HCT-116 and HCT-FET cells; experiment: Chemosensitization (caspase-3 cleavage) of colorectal cancer cells to 5′FU; assay type: cell-based, human
Method: FIG. 16. […] (A) Ovarian cancer (OVCAR-8 and ES-2) cells were treated with indicated concentrations of Doxorubicin (Doxo) alone or in combination with STL001 for 24 hrs. […] (C) colon cancer (HCT-116 and FET) cells were treated with indicated concentrations of 5′FU alone or in combination with STL001 for 24 hrs.

TAMR cells = assay type: cell-based
Method: as §1

HCC-1143 cells = system: HCC-1143 cells
Method: as §1
Stable FOXM1-expression knockdown in cancer cell: Cells were seeded on commercially available 12-well tissue culture plates to achieve ~40% confluency. […] Transduced cells were selected by their cultivation with puromycin (1.0 μg/mL) for 10 days and then maintained without puromycin as described above.

FOXM1 [5] = molecular target: T1, FOXM1; parameters: Total protein samples obtain from treated cells were analyzed for FOXM1 protein levels via immunoblotting; endogenous in cells; conditions: solid cancer cell lines; cited from earlier work
FOXM1 [6] = molecular target: T1, FOXM1; parameters: Total protein samples obtain from treated cells were analyzed for FOXM1 protein levels via immunoblotting; endogenous in cells; host or cells: KG-1, HL-60, K562, THP-1 leukemia cell lines; conditions: cited from earlier work

## C=C(NC(=O)C(=C)NC(=O)c1csc(C2=N[C@@H]3c4csc(n4)[C@H]4NC(=O)c5csc(n5)[C@H]([C@](C)(O)[C@@H](C)O)NC(=O)[C@H]5CSC(=N5)/C(=C/C)NC(=O)[C@H]([C@@H](C)O)NC(=O)c5csc(n5)[C@]3(CC2)NC(=O)[C@H](C)NC(=O)C(=C)NC(=O)[C@H](C)NC(=O)[C@H]([C@@H](C)CC)N[C@@H]2C=Cc3c([C@H](C)O)cc(nc3[C@H]2O)C(=O)O[C@@H]4C)n1)C(N)=O [thiostrepton]
[1]; KG-1 cells
  apoptosis (caspase-3 cleavage) in combination with cytarabine: synergistic induction of apoptosis
FOXM1 [2]
  FOXM1 level: down-regulation of FOXM1

## CC(C)N(C(=O)c1cc(F)ccc1Oc1cncnc1N1CC2(CCN(CC3CCC(NS(C)(=O)=O)CC3)CC2)C1)C(C)C (stereo not drawn) [VTP-50469]
NPM1c mutant AML cells; knock-in murine model
  leukemia development in the knock-in murine model: prevent leukemia development
NPM1c mutant AML cells; oral inhibitor, xenografts
  effect on NPM1c mutant AML cells in xenografts: able to eradicate NPM1c mutant AML cells in xenografts

## CCC(=C/[C@H](C)C/C=C/C(C)=C/[C@@H](C)C(=O)[C@@H](C)[C@H](O)[C@@H](C)C/C(C)=C/C(=O)O)/C=C/[C@@H]1OC(=O)C=C[C@@H]1C [Leptomycin B]
FOXM1 [2]
  effect on FOXM1 protein levels suppressed by STL001: rescued FOXM1 protein levels

## CC(=O)O[C@H]1C(=O)[C@@]2(C)[C@H]([C@H](OC(=O)c3ccccc3)[C@]3(O)C[C@H](OC(=O)[C@H](O)[C@@H](NC(=O)c4ccccc4)c4ccccc4)C(C)=C1C3(C)C)[C@]1(OC(C)=O)CO[C@@H]1C[C@@H]2O [paclitaxel]
22RV1, LNCaP cells
  cytotoxic effects, chemotherapeutic alone: without showing any cytotoxic effects
FOXM1 [3]; 22RV1, LNCaP, sublethal concentrations
  cellular FOXM1 protein levels, chemotherapeutic alone: prominent increase in cellular FOXM1 protein levels

## O=c1[nH]cc(F)c(=O)[nH]1 [5′FU, 5-fluorouracil]
[4]
  cell death, chemotherapeutic alone: without evident cell death
FOXM1 [3]; HCT-116 and HCT-FET
  FOXM1 level, chemotherapeutic alone: FOXM1 upregulation

## CC(C)C[C@H](NC(=O)[C@H](Cc1ccccc1)NC(=O)c1cnccn1)B(O)O [bortezomib]
[1]; KG-1 cells
  apoptosis (caspase-3 cleavage) in combination with cytarabine: synergistic induction of apoptosis
FOXM1 [2]
  FOXM1 level: down-regulation of FOXM1

## CC/C(=C(\c1ccccc1)c1ccc(OCCN(C)C)cc1)c1ccccc1 [tamoxifen]
TAMR cells
  cell death, tamoxifen alone: without prominent cell death induction
FOXM1 [3]; TAMR cells
  FOXM1 level, tamoxifen alone: FOXM1 upregulation

## COc1cccc2c1C(=O)c1c(O)c3c(c(O)c1C2=O)C[C@@](O)(C(=O)CO)C[C@@H]3O[C@H]1C[C@H](N)[C@H](O)[C@H](C)O1 [doxorubicin]
HCC-1143 cells
  cytotoxic effects, DNA-damaging agent alone: without showing prominent cytotoxic effects
FOXM1 [3]; HCC-1143, sub-lethal concentrations
  cellular FOXM1 protein, DNA-damaging agent alone: significantly higher levels of cellular FOXM1 protein
FOXM1 [3]; OVCAR-8, ES-2, sub-lethal concentrations
  FOXM1 protein abundance, chemotherapeutic alone: significant increase in FOXM1 protein abundance

## CCN(CC)CCCC(C)Nc1ccnc2cc(Cl)ccc12 (stereo not drawn) [Chloroquine]
FOXM1 [2]
  effect on FOXM1 protein levels suppressed by STL001: rescued FOXM1 protein levels

## O=C(Oc1cccc(/C=N/Nc2nc(Nc3ccccc3)nc(N3CCOCC3)n2)c1)c1ccco1 [STL427944]
[1]; KG-1/THP-1 cells
  apoptosis (caspase-3 cleavage) in combination with venetoclax: synergetic induction of apoptosis
[1]; KG-1 cells, versus shRNA FOXM1 knockdown
  efficiency of sensitization to venetoclax treatment: comparable to effects caused by shRNA-mediated FOXM1 knockdown
[1]; THP1, KG-1, K562 cells, 24 hrs
  effect on cytotoxicity of chemotherapeutic drugs (venetoclax, cytarabine): enhances the cytotoxic effect of conventional chemotherapeutic drugs
FOXM1 [3]; ovarian cancer cells (ES-2, OVCAR-8)
  efficacy in knocking down FOXM1 expression: lesser efficacy as compared to STL001
FOXM1 [5]
  concentrations showing modest FOXM1 suppression: 25 to 50 µM
FOXM1 [2]; AML cell line KG-1
  concentration showing modest FOXM1 inhibition: 25 µM
FOXM1 [2]; estimated
  Potency in AML: uM range
FOXM1 [2]; leukemia cell lines, increasing concentrations, 24 h
  FOXM1 protein levels: dose-dependent suppression of FOXM1 protein levels; also recorded: efficiently reduces FOXM1 protein levels
FOXM1 [6]; human cancer cells
  sensitivity of treated human cancer cells to platinum-based agents, 5-fluorouracil, taxanes: increased sensitivity to cytotoxic effects of conventional chemotherapeutic treatments
FOXM1 [6]; relocalization of nuclear FOXM1 to cytoplasm, degradation by autophagosomes
  effect on FOXM1: selectively suppresses FOXM1
